Source: patent publication US20240415814A1, “PHARMACEUTICAL COMPOSITION COMPRISING 1-(3-CYANO-1-ISOPROPYL-INDOL-5-YL)PYRAZOLE-4-CARBOXYLIC ACID” (LG CHEM, LTD., priority 2021, published 2024)

What was measured:
serum uric acid [1] = experiment: Phase 2 clinical trial (NCT03934099): serum uric acid concentration in gout patients; format: in vivo, human; details: for patients with serum uric acid concentration <4 mg/dL / patients with serum uric acid concentration <5 mg/dL / patients with serum uric acid concentration <6 mg/dL: febuxostat group 40 mg oral
Protocol: A phase 2 clinical trial was conducted to analyze the dosage, TEAEs, and the like when the compound of Formula 1 (1-(3-cyano-1-isopropyl-indol-5-yl)pyrazol-4-carboxylic acid; compound of Example 1) is administered to a gout patient group.
• 1. Written informed consent (signed and dated) provided voluntarily prior to the start of the study. • 2. Male or female aged from 18 to 75 • 3. History or experience of hyperuricemia and gout in accordance with the criteria of the American College of Rheumatology. • 4. Self-reported history of 2 or more gout flare within 12 months prior to screening visit (Visit 1). • 5. Serum uric acid (sUA) levels at Visit 1 of 6.0 mg/dL or more in subjects who were receiving urate lower therapy (ULT) with allopurinol, febuxostat, probenecid, or lesinurad; and sUA levels at Visit 1 of 8.0 mg/dL or more and 12.0 mg/dL or less in subjects who had no history of receiving the ULT or were not receiving the ULT at visit 1. • 6. sUA levels of 8.0 mg/dL or more and 12.0 mg/dL or less at Visit 3. • 7. Body mass index of 42 kg/m^2 or less at screening visit (Visit 1). • 8. Estimated glomerular filtration rate (eGFR) of 60 mL/min/1.73 m^2 or more at screening visit (Visit 1). • 9. Subjects of childbearing potential with a negative pregnancy test result at screening visit (Visit 1). Subjects (female subjects of childbearing potential and male subjects with partners of childbearing potential) consented to use adequate methods of contraception to avoid pregnancy during the study period. • 10. Able to understand the study procedure and relevant risk, and willing to comply with the visit/protocol schedule.
• 1. Presence of secondary hyperuricemia caused by myeloproliferative disorder, organ transplantation, or the like. • 2. Experience of any active acute gout flare within 3 weeks prior to screening visit (Visit 1). • 3. Aspartate aminotransferase or alanine aminotransferase level exceeds 2 times upper limit of normal (ULN) at screening visit (Visit 1). • 4. Creatine kinase level exceeds 2.5 times ULN at screening visit (Visit 1). • 5. Presence of previous hypersensitivity to colchicine. • 6. Patients who have ever prescribed pegloticase within 3 months prior to screening visit (Visit 1). • 7. If a stable dose of drugs (losartan, fibrate, thiazide diuretics, loop diuretics, and acetylsalicylic acid) known to affect sUA levels has not been administered during the past 6 weeks prior to screening visit (Visit 1), acetylsalicylic acid is not allowed to use 325 mg/day or more. • 8. Patients who have ever received systemic corticosteroids for 10 or more consecutive days within 1 month prior to screening visit (Visit 1). • 9. Presence of need or potential availability of systemic immunosuppressive drugs or immunomodulatory therapies (e.g., azathioprine, 6-mercaptopurine, and cyclosporine) • 10. Patients who have received high or moderate doses of cytochrome P450 3A4 inhibitors or P-glycoprotein inhibitors within 14 days prior to screening visit (Visit 1). • 11. History of xanthinuria. • 12. History of rheumatoid arthritis. • 13. Presence of active peptic ulcer disease requiring treatment. • 14. Presence of unstable angina, New York Heart Association class III or IV heart failure, myocardial infarction, stroke, deep vein thrombosis, percutaneous coronary intervention (with or without stent), or coronary artery bypass graft within the past 12 months prior to screening visit (Visit 1); current administration of anticoagulants; or the presence of clinically significant electrocardiogram abnormalities in the investigator's opinion at screening visit (Visit 1). • 15. Presence of uncontrolled hypertension (systolic blood pressure>160 mmHg or diastolic blood pressure>95 mmHg) at screening visit (Visit 1). • 16. History of myositis/myopathy, rhabdomyolysis, Stevens-Johnson syndrome, or toxic epidermal necrolysis. • 17. […]

serum uric acid [2] = details: previous results, gout patients; cited from earlier work
[3] = febuxostat 40 mg, mild renal function impairment, 12 weeks
[4] = febuxostat 40 mg, normal renal function, 12 weeks
[5] = febuxostat 40 mg, one patient in moderate renal function impairment group, 12 weeks

Row | SMILES | patients adjusted to serum uric acid <5.0 mg/dL (serum uric acid [1]; [3]) | patients adjusted to serum uric acid <6.0 mg/dL (serum uric acid [1]; [3]) | patients adjusted to serum uric acid <5.0 mg/dL (serum uric acid [1]; [4]) | patients adjusted to serum uric acid <6.0 mg/dL (serum uric acid [1]; [4]) | adjustment of serum uric acid to <5.0 mg/dL (serum uric acid [1]; [5]) | adjustment of serum uric acid to <6.0 mg/dL (serum uric acid [1]; [5]) | patients with serum uric acid concentration <4 mg/dL (serum uric acid [1]; 12 weeks) | patients with serum uric acid concentration <5 mg/dL (serum uric acid [1]; 12 weeks) | patients with serum uric acid concentration <6 mg/dL (serum uric acid [1]; 12 weeks) | patients with serum uric acid concentration <4 mg/dL (serum uric acid [1]; 12 weeks, listed as febuxostat) | patients with serum uric acid concentration <5 mg/dL (serum uric acid [1]; 12 weeks, listed as febuxostat) | patients with serum uric acid concentration <6 mg/dL (serum uric acid [1]; 12 weeks, listed as febuxostat) | degree of reduction in serum uric acid (serum uric acid [1]; febuxostat group 40 mg, FIG. 3) | patients in the receiving group with serum uric acid concentration of less than 6 mg/dL (serum uric acid [2])
1 | Cc1nc(-c2ccc(OCC(C)C)c(C#N)c2)sc1C(=O)O [Febuxostat, febuxostat, reference compound] | 33% | 67% | 20% | 60% | not adjusted to less than 5.0 mg/dL | not adjusted to less than 6.0 mg/dl | 0% (0/13 people) | 23% (3/13 people) | 54% (7/13 people) | 0% | 23% | 54% | 41.4% | 
2 | Oc1ncnc2[nH]ncc12 [allopurinol] |  |  |  |  |  |  |  |  |  |  |  |  |  | about 40%
